Measurements reported in patent publication US20080214563A1, “Benzimidazole Thiophene Compounds As Plk Modulators” (priority 2005, published 2008).

Key:
Format in all cases: cell-based
HCT116 = assay: Methylene Blue Cell Growth Inhibition Assay, HCT116; settings: Homo sapiens, HCT-116, 72 h, read-out: MEB HCT116 IC50
Protocol: (§1) Normal human foreskin fibroblasts (HFF), human colon (HCT116, RKO), lung (H460, A549) and breast (MCF7) tumor cell lines were cultured in high glucose DMEM (Life Technologies) containing 10% fetal bovine serum (FBS) at 37° C. in a humidified 5% CO2, 95% air incubator. Cells were harvested using trypsin/EDTA, counted using a haemocytometer, and plated in 100 μL of culture media per well, at the following densities, in a 96-well tissue culture plate (Falcon 3075): HFF 5,000 cells/well, HCT116 3,000 cells/well, RKO 2,500 cells/well, H460 2,500 cells/well, A549 5,000 cells/well, MCF7 4,000 cells/well. The next day, compounds were diluted in low glucose DMEM containing 100 μg/mL gentamicin, at twice the final required concentration, from 10 mM stock solutions in DMSO. 100 μL/well of these dilutions were added to the 100 μL of media currently in the assay plates. Medium containing 0.6% DMSO was added to control wells. The final concentration of DMSO in all wells was 0.3%. Cells were incubated at 37° C., 5% CO2 for 72 h. Medium was removed by aspiration. Cell biomass was estimated by staining cells with 80 μL per well methylene blue (Sigma M9140, 0.5% in 50:50 ethanol:water), and incubation at room temperature for 30-60 min. Stain was removed by aspiration and the plates rinsed by immersion in water, then air-dried. To release stain from the cells, 100 μL of solubilization solution was added (1% N-lauroyl sarcosine, Sodium salt, Sigma L5125, in PBS), and plates were shaken gently for about 30 min. Optical density at 620 nm was measured on a microplate reader. Percent inhibition of cell growth was calculated relative to vehicle treated control wells. Concentration of compound that inhibits 50% of cell growth (IC50) was interpolated using nonlinear regression (Levenberg-Marquardt) and the equation, y=Vmax*(1−(x/(K+x)))+Y2, where “K” was equal to the IC50.

RKO = assay: Methylene Blue Cell Growth Inhibition Assay, RKO; settings: Homo sapiens, 72 h, read-out: MEB RKO IC50
Protocol: as §1

HCT-116 = assay: Cell-Titer Glo Cell Growth Inhibition Assay, HCT116; settings: Homo sapiens, CellTiter-Glo, 72 h, read-out: CTG HCT116 IC50
How it was run: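 Human tumour cells in RPMI1640 + 10% FBS, plated at 500 cells/well, rested overnight, then given two-fold compound dilutions (0.15% DMSO) for 72 h at 37° C, 5% CO2. CellTiter-Glo luminescence read against a day-0 plate; IC50 from 4- or 6-parameter fit after no-cell background subtraction.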

Colo 205 = assay: Cell-Titer Glo Cell Growth Inhibition Assay, COLO205; settings: Homo sapiens, CellTiter-Glo, 72 h, read-out: CTG COLO205 IC50
Protocol: (§2) A549-L (human lung), BT474 (human breast), Colo 205 (human colon), H1299 (human lung), Hela (human cervix), HCT-116 (human colon), HN5 (human head and neck), HT29 (human colon), LNCap (human prostate), MCF7 (human breast), MDA-MB468 (human breast), MX-1 (human breast), RPMI 8226 (human peripheral blood), SKOV3 (human ovary) and P388 (murine leukemia) cell lines were cultured in RPMI1640 containing 10% fetal bovine serum at 37° C. in a 5% CO2 incubator. Cell lines were split into T75 flasks (Falcon #353136) two to three days prior to assay set up at density which yields approximately 70-80% confluency at time of harvest for assay. Cells were harvested using 0.25% trypsin with EDTA (Glibco/Invitrogen #25200-056), Cell counts were performed on cell suspensions using Trypan Blue exclusion staining, cells were then plated in 105 uL of culture media per well at the following densities in 96 well Costar #3916 black flat bottom plates: All human cell lines were plated at 500 cells/well. P388 were plated at 250 cells/well. All plates were placed at 5% CO2 37° C. overnight and then test compounds were added the following day. One plate of each cell type is treated with CellTiter-Glo (Promega #G7573) for a day 0 proliferation measurement and read as described below. The test compounds are prepared in clear U bottom polypropylene 96 well plates (Falcon #35-1190 with consecutive two fold dilutions. 9 uL of these dilutions was added into each well of the cell plates. The final concentration of DMSO in all wells is 0.15%. Cells were incubated at 37° C., 5% CO2 for 72 h. Following 72 h of incubation with compounds each plate was developed and read. CellTiter-Glo reagent was added to assay plates using a volume equivalent to the cell culture volume in the wells. Plates were shaken for approximately two minutes and incubated at room temperature for approximately 15 min and the chemiluminescent signal is read on the Victor V or Envison 2100 reader. […] Concentration of compound that inhibited 50% of cell growth (IC50) was analysis by 4 or 6 parameter fit of data using XLfit, value of no cell addition was subtracted from all samples for background.

A549-L = assay: Cell-Titer Glo Cell Growth Inhibition Assay, A549-L; settings: Homo sapiens, CellTiter-Glo, 72 h, read-out: CTG A549-L IC50
Protocol: as §2

HT29 = assay: Cell-Titer Glo Cell Growth Inhibition Assay, HT29; settings: Homo sapiens, HT-29, CellTiter-Glo, 72 h, read-out: CTG HT29 IC50
Protocol: as §2

SKOV3 = assay: Cell-Titer Glo Cell Growth Inhibition Assay, SKOV-3; settings: Homo sapiens, SK-OV-3, CellTiter-Glo, 72 h, read-out: CTG SKOV-3 IC50
Protocol: as §2

MX-1 = assay: Cell-Titer Glo Cell Growth Inhibition Assay, MX-1; settings: Homo sapiens, MX1, CellTiter-Glo, 72 h, read-out: CTG MX-1 IC50
Protocol: as §2

IC50 (HCT116) [nM]	IC50 (HCT-116) [nM]	IC50 (Colo 205) [nM]	IC50 (A549-L) [nM]	IC50 (HT29) [nM]	IC50 (SKOV3) [nM]	Structure (SMILES)	IC50 (RKO) [nM]	IC50 (MX-1) [nM]
100 to 1000	< 100	< 100	100 to 1000	< 100	100 to 1000	C[C@@H](Oc1cc(-n2cnc3cc(-c4ccc(N5CCNCC5)nc4)ccc32)sc1C(N)=O)c1ccccc1C(F)(F)F [Example 1, 5-{5-[6-(1-piperazinyl)-3-pyridinyl]-1H-benzimidazol-1-yl}-3-({(1R)-1-[2-(trifluoromethyl)phenyl]ethyl}oxy)-2-thiophenecarboxamide]	< 100	< 100
100 to 1000	< 100	< 100	< 100	< 100	100 to 1000	C[C@@H](Oc1cc(-n2cnc3cc(-c4ccc(N5CCNCC5)nc4)ccc32)sc1C(N)=O)c1ccccc1Cl [Example 7, 3-{[(1R)-1-(2-Chlorophenyl)ethyl]oxy}-5-{5-[6-(1-piperazinyl)-3-pyridinyl]-1H-benzimidazol-1-yl}-2-thiophenecarboxamide]	< 100	100 to 1000

Structure (SMILES)	IC50 (HCT116) [nM]	IC50 (HCT-116) [nM]	IC50 (Colo 205) [nM]	IC50 (A549-L) [nM]	IC50 (HT29) [nM]	IC50 (SKOV3) [nM]	IC50 (RKO) [nM]	IC50 (MX-1) [nM]
C[C@@H](Oc1cc(-n2cnc3cc(-c4cnn(C)c4)ccc32)sc1C(N)=O)c1ccccc1Cl [Example 9, 3-{[(1R)-1-(2-Chlorophenyl)ethyl]oxy}-5-[5-(1-methyl-1H-pyrazol-4-yl)-1H-benzimidazol-1-yl]-2-thiophenecarboxamide]	< 100	< 100	< 100	< 100	< 100	< 100	< 100	< 100
